This passage reports IC50 and Activity results from ChEMBL document CHEMBL6083188, “Recent contributions of pyridazine as a privileged scaffold of anticancer agents in medicinal chemistry: An updated review” (Bioorg Med Chem, 2024).

In one assay the test system is SNB-75. As to the kind of experiment: Antiproliferative activity against human SNB-75 cells assessed as reduction in cell growth incubated for 48 hrs by SRB assay. The assay is classed as functional, cell-based. To be noted: SNB-75, 48 h. On the technique in general: The SRB assay estimates cell density from bound dye.
In assay [1] the target is Phosphatidylinositol 4,5-bisphosphate 3-kinase catalytic subunit alpha isoform (Homo sapiens, UniProt P42336). As to the kind of experiment: Inhibition of PI3Kalpha (unknown origin).
Chain of Phosphatidylinositol 4,5-bisphosphate 3-kinase catalytic subunit alpha isoform (P42336 whole entry, canonical isoform): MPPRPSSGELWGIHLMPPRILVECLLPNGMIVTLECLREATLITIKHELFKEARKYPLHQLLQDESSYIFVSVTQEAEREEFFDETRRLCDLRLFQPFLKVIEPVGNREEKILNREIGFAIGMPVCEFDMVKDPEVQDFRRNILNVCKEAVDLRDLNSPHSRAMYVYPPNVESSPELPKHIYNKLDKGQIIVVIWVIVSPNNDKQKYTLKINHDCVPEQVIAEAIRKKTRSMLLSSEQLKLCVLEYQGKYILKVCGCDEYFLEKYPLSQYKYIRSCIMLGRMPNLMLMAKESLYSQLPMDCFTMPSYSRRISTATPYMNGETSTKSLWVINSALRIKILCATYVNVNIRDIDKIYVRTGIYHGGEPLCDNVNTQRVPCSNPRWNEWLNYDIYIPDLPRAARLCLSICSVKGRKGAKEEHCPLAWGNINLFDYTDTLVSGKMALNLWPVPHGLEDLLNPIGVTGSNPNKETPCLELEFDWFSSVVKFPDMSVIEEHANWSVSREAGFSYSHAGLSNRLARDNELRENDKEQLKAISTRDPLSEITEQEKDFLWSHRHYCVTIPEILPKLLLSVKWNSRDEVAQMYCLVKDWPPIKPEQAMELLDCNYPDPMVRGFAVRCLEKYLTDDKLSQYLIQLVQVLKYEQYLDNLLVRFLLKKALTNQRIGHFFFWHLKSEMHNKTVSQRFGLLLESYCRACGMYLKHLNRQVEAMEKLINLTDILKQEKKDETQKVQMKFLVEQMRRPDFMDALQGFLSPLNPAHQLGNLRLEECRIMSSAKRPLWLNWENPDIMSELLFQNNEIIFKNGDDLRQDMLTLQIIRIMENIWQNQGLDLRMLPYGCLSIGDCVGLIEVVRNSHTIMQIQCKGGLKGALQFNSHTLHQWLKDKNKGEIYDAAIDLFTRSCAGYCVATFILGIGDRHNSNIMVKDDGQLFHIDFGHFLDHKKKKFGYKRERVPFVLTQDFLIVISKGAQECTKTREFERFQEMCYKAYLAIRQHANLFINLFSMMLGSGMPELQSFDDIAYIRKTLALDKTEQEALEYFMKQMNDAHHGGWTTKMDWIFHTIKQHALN
Assay [2] has as its target Phosphatidylinositol 4,5-bisphosphate 3-kinase catalytic subunit gamma isoform (Homo sapiens, UniProt P48736). Briefly: Inhibition of PI3Kgamma (unknown origin).
Assay [3] addresses Phosphatidylinositol 4,5-bisphosphate 3-kinase catalytic subunit beta isoform (Homo sapiens, UniProt P42338). Briefly: Inhibition of PI3Kbeta (unknown origin).
Assay [4] concerns the target T1, Phosphatidylinositol 4,5-bisphosphate 3-kinase catalytic subunit delta isoform (Homo sapiens, UniProt O00329).
T1 sequence (O00329 whole entry): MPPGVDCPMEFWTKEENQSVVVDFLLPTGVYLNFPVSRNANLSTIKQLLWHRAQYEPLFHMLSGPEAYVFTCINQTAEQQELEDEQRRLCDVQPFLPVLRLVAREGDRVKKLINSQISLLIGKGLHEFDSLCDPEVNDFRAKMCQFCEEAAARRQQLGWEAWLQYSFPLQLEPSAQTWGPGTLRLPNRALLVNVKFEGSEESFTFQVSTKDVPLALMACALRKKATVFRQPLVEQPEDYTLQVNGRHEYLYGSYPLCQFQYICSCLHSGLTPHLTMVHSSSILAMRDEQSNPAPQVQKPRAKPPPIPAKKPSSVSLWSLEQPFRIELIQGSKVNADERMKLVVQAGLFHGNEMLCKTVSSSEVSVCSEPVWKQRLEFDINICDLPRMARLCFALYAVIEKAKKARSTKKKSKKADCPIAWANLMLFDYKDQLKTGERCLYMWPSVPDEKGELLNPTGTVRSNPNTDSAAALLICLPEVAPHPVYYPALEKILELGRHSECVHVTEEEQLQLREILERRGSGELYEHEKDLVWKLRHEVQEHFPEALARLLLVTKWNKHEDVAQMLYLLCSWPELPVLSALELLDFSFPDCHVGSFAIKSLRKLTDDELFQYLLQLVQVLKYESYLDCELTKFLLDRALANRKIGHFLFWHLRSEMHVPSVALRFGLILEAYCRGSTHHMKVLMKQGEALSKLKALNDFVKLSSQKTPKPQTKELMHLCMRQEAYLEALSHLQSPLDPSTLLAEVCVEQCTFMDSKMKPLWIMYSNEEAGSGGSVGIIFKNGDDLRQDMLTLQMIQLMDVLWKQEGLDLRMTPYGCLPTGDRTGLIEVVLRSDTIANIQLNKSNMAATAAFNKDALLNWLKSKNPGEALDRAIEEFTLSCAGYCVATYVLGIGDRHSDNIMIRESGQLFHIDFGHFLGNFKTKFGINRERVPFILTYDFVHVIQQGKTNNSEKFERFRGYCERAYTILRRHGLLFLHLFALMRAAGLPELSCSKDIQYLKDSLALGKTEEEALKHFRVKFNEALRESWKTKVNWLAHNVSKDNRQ
Briefly: Inhibition of PI3Kdelta (unknown origin).

The subject of a further assay is MGC-803. As to the kind of experiment: Antitumor activity against human MGC-803 cells xenografted in nude mouse assessed as tumor inhibition at 20 mg/kg, ip administered once every two days for 21 days relative to control. The assay is classed as functional. Details: scale not given: the % may be the effect or the level left. To be noted: time 21 day. Background: A xenograft is tissue or cells of one species grown in another, often human tumour cells in immunodeficient mice.

Assay [5] relates to PC-3. Briefly: cells. To be noted: Homo sapiens, PC-3, 72 h.
Description: Cytotoxicity against human PC-3 cells assessed as inhibition of cell growth incubated for 72 hrs by MTT assay
The subject of a further assay is T47D. Briefly: cells. To be noted: Homo sapiens.
In another assay the test system is MDA-MB-231. Briefly: cells. To be noted: Homo sapiens.
For the next assay, the system named is HepG2. As to the kind of experiment: Cytotoxicity against human HepG2 cells assessed as reduction in cell viability measured for 48 hrs by MTT assay. The assay is classed as functional, cell-based. To be noted: HepG2, 48 h.
The test system of assay [6] is PC-3. As to the kind of experiment: Cytotoxicity against human PC-3 cells assessed as reduction in cell viability measured for 48 hrs by MTT assay. The assay is classed as functional, cell-based. To be noted: PC-3, 48 h. For orientation: Tetrazolium assays rely on reduction of a dye to a coloured formazan, in cell work by metabolically active cells.
Assay [7] concerns HCT-116. Briefly: Cytotoxicity against human HCT-116 cells assessed as reduction in cell viability measured for 48 hrs by MTT assay. The assay is classed as functional, cell-based. To be noted: HCT-116, 48 h.
For assay [8], the system named is MCF7. Briefly: Cytotoxicity against human MCF7 cells assessed as reduction in cell viability measured for 48 hrs by MTT assay. To be noted: MCF7, 48 h. The assay is classed as functional, cell-based.
Another assay has as its system HeLa. As to the kind of experiment: Cytotoxicity against human HeLa cells assessed as reduction in cell growth incubated for 5 days by MTT assay. The assay is classed as functional, cell-based. To be noted: 120 h.
Another assay relates to A549. Briefly: Cytotoxicity against human A549 cells assessed as reduction in cell growth incubated for 5 days by MTT assay. To be noted: A549, 120 h. The assay is classed as functional, cell-based.
For assay [9], the target named is Hepatocyte growth factor receptor (Homo sapiens, UniProt P08581). As to the kind of experiment: Inhibition of c-Met (unknown origin).
Chain of Hepatocyte growth factor receptor (P08581 whole entry): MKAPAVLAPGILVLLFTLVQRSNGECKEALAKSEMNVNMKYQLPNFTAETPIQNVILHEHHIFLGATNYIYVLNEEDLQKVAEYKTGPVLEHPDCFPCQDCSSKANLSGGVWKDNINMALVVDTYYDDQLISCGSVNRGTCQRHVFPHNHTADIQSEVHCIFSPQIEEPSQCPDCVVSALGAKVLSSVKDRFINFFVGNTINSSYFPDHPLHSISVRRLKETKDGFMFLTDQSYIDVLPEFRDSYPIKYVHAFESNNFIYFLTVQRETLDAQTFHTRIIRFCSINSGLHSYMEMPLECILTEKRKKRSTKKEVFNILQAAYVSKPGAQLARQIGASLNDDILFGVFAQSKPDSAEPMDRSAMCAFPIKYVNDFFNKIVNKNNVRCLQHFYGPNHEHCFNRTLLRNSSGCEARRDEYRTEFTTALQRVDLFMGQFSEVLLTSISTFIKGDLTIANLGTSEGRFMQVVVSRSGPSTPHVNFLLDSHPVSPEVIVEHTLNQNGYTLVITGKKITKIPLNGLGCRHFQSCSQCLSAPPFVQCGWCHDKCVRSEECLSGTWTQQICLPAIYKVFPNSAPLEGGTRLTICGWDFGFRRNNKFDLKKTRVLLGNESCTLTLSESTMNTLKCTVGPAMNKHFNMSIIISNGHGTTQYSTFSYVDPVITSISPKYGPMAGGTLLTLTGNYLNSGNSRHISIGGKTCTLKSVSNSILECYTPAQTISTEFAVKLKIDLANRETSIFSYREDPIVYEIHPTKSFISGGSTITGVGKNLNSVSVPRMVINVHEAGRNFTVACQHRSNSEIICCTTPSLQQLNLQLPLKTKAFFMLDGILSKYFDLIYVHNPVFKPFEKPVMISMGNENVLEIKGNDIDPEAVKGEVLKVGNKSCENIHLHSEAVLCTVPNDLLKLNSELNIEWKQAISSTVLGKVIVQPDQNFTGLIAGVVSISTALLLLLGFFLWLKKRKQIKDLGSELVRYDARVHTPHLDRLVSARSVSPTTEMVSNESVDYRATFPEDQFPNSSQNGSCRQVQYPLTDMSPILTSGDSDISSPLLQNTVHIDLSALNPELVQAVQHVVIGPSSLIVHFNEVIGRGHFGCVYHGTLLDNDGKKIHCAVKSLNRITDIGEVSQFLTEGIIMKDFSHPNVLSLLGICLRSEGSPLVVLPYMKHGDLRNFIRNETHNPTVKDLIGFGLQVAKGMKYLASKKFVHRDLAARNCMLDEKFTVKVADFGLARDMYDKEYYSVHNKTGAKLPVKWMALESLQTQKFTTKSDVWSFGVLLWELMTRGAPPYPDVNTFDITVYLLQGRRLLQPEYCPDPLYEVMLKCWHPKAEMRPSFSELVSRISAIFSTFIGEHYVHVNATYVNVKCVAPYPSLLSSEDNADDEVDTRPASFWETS
Assay [10] has as its system MCF7. As to the kind of experiment: Cytotoxicity against human MCF7 cells assessed as reduction in cell growth incubated for 5 days by MTT assay. The assay is classed as functional, cell-based. To be noted: MCF7, 120 h.
Another assay addresses Aurora kinase B (Homo sapiens, UniProt Q96GD4). Briefly: Inhibition of Aurora B (unknown origin).
In assay [11] the test system is HCT-116. Briefly: Cytotoxicity against human HCT-116 cells assessed as reduction in cell viability incubated for 72 hrs by MTT assay. The assay is classed as functional, cell-based. To be noted: HCT-116, 72 h.
Assay [12] concerns the target Epidermal growth factor receptor (Homo sapiens, UniProt P00533). As to the kind of experiment: Inhibition of EGFR (unknown origin) extracted from insect cells by ELISA method. The assay is classed as cell-free, Insect cell.
The nature of assay [13]: Antiproliferative activity against mouse Ba/F3 EML4-ALK-G1202R-L1196M cells assessed as inhibition of cell growth. The assay is classed as functional, cell-based.
Assay [14] in a line: Antiproliferative activity against mouse Ba/F3 EML4-ALK cells assessed as inhibition of cell growth. The assay is classed as functional, cell-based.

Converted amounts (≈) assume the structure as drawn.

As a reminder, the IC50 is the point on the concentration scale where inhibition reaches its midpoint.

Chain of Phosphatidylinositol 4,5-bisphosphate 3-kinase catalytic subunit beta isoform (P42338 whole entry, canonical isoform): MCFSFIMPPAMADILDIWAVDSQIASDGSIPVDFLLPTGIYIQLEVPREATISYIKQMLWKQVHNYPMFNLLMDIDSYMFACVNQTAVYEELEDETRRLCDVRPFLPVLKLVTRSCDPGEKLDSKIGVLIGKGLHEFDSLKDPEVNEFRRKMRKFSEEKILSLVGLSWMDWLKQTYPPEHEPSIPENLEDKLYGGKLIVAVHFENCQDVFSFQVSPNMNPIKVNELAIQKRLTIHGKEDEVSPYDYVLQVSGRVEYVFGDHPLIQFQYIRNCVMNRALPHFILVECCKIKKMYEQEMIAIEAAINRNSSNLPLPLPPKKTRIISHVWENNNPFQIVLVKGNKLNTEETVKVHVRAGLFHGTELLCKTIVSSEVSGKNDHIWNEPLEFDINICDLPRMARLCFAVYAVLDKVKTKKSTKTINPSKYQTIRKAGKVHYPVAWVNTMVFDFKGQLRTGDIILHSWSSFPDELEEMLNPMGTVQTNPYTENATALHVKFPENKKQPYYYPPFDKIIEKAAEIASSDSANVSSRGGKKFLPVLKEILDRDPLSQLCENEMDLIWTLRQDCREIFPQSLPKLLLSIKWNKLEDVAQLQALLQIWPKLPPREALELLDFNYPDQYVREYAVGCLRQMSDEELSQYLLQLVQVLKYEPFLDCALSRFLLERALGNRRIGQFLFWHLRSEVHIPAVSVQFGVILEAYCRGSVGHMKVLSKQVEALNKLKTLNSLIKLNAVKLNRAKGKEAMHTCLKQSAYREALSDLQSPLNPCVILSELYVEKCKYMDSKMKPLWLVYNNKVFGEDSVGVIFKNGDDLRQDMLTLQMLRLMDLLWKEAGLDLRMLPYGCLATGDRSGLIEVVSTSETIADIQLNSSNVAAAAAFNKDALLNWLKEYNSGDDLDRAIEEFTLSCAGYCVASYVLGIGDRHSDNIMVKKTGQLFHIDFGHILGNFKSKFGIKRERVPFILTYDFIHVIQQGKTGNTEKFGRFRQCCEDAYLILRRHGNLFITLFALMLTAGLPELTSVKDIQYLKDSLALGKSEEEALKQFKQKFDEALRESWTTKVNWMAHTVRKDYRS
Chain of Phosphatidylinositol 4,5-bisphosphate 3-kinase catalytic subunit gamma isoform (P48736 whole entry, canonical isoform): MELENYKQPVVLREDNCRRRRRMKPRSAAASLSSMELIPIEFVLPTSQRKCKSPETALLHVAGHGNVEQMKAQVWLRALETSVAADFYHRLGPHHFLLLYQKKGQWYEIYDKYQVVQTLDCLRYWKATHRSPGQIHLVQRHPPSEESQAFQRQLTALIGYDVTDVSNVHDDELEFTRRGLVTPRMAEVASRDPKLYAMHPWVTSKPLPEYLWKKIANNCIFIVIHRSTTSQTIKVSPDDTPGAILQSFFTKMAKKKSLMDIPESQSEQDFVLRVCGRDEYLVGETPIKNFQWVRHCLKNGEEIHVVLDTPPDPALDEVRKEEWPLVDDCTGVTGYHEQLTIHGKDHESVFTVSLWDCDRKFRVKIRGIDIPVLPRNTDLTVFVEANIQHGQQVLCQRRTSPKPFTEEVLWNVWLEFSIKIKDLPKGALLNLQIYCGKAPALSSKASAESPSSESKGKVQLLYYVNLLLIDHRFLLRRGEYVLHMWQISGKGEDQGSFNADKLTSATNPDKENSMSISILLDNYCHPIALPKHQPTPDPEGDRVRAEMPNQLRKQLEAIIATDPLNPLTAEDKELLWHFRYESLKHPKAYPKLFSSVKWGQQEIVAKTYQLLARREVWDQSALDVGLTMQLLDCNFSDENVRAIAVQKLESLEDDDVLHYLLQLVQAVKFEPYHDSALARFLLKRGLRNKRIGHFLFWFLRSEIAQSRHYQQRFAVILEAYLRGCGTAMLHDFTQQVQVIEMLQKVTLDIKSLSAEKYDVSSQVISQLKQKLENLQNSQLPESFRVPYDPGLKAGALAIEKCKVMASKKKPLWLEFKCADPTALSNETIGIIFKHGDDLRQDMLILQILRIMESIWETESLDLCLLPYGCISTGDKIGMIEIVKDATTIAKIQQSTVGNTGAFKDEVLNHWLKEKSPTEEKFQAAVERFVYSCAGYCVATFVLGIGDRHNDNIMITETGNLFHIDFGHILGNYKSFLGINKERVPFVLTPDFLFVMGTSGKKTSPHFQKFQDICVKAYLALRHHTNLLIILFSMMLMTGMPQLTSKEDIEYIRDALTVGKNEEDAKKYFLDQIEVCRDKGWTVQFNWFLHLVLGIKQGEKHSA
Chain of Aurora kinase B (Q96GD4 whole entry): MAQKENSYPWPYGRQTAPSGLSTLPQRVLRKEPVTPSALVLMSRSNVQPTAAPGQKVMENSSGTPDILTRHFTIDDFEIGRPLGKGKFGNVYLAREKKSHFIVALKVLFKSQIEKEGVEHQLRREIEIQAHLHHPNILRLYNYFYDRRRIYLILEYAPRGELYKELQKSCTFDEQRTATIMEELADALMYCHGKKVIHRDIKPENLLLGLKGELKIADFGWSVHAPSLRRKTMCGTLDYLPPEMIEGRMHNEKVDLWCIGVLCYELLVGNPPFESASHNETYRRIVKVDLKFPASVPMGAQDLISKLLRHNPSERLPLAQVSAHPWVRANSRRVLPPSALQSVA
Description for MDA-MB-231: Antiproliferative activity against human MDA-MB-231 cells assessed as reduction in cell viability
Description for T47D: Antiproliferative activity against human T47D cells assessed as reduction in cell viability

In the case of `CCOC(=O)c1nn(-c2ccccc2)c(=O)c2c(N)c(C#N)c(-c3cccs3)cc12`, the half-maximal inhibitory concentration (IC50) in the assay with SNB-75 came out at 3.7 µg/mL (≈ 8.88 µM); in assay [1], 4390 nM; in assay [2], 12500 nM; in [3], 13600 nM; in assay [4] it was 3110 nM.
With `CCN(CC)CCNc1cc(-c2ccc(Br)cc2)nn2c(=O)c3ccccc3nc12`, in the assay on MGC-803, the Activity was determined as 55.9%.
In turn, `O=C1CCC(c2ccc(NC(=S)Nc3ccccc3)cc2)=NN1c1ccccc1` displayed an IC50 with PC-3 [5] of 7830 nM.
As for `O=C(NCC1CCOCC1)c1cc(C(F)(F)F)c(N2CCOCC2)nn1`, the IC50 is 430 nM in the assay with T47D and 900 nM in the assay with MDA-MB-231.
On to `Oc1ccc(/C=N/Nc2nn3c(C(F)(F)F)nnc3c3ccccc23)cc1`, for which the 50% inhibitory concentration (IC50) with HepG2 came to 11200 nM; with PC-3 [6] it was 4250 nM; with HCT-116 [7] it was 5700 nM; with MCF7 [8], 8040 nM.
Regarding `Cc1cc(Oc2ccc(NC(=O)c3sc(-c4ccccn4)nc3C)cc2)c2nncn2n1`, the IC50 with HeLa was found to be 2730 nM; in the assay on A549, 1060 nM; in assay [9] it was 90 nM; in the assay on MCF7 [10], 1200 nM.
Take `c1cc2[nH]ncc2cc1-c1cnc2ccc(OC[C@H]3CNCCO3)nn12`: the 50% inhibitory concentration (IC50) against Aurora kinase B came out at 6 nM.
As for `COC(=O)C(CC(C)(C)C)NC(=O)CNC(=O)COc1nn(-c2ccccc2)c(=O)c2ccccc12` (stereo not drawn), in the assay on HCT-116 [11], the half-inhibitory concentration (IC50) worked out at 1360 nM.
`COc1cccc(C2=NN(c3ccc(-c4ccccc4)nn3)C(c3ccc(F)c(OC)c3)C2)c1` (stereo not drawn) gave an IC50 in assay [12] of 650 nM.
Regarding `C[C@H]1CNC(=O)c2cnn3ccc(nc23)N[C@H](C)c2cc(F)ccc2O1` [REPOTRECTINIB], the results for the IC50 in assay [13] and in [14] were 208 nM and 164 nM, respectively.
Take `CNC(=O)c1cc(Oc2ccc(NC(=O)Nc3ccc(Cl)c(C(F)(F)F)c3)cc2)ccn1` [SORAFENIB]: half-maximal inhibition in the assay on PC-3 [5] (IC50) was put at 11500 nM.
